Results on ten compounds are retold here after DBAASP.

In general, MIC refers to the lowest concentration that inhibits growth of the organism. The low end stands for a more susceptible organism, the high end for a less susceptible organism.

Common to all, as to assay: ≥ marks a high value that may be exact or a test limit, other limits are often not marked, values filed in µg/mL are converted to µM
Test [1] deals with Escherichia coli NCTC 10418.
The test system of test [2] is Candida albicans NCPF 1467.
The subject of test [3] is Staphylococcus aureus NCTC 10788.
The next test concerns Bacillus subtilis.
Test [4] has as its system Escherichia coli DH5alpha.
Test [5] relates to Pseudomonas aeruginosa ATCC 27853.
The subject of test [6] is Staphylococcus aureus ATCC 25923.
Test [7] has as its system Candida albicans ATCC 2002.
The subject of test [8] is Pseudomonas aeruginosa CMCCB 10104.
Test [9] deals with Escherichia coli ATCC 25922.

The structures appear in SMILES notation. Values after ≈ are worked out from the molar mass of the structure shown.

On to `CC[C@H](C)[C@H](NC(=O)[C@H](CO)NC(=O)[C@H](CC(N)=O)NC(=O)[C@@H](NC(=O)[C@H](Cc1ccccc1)NC(=O)[C@H](C)NC(=O)[C@H](CO)NC(=O)[C@H](C)NC(=O)[C@H](Cc1ccccc1)NC(=O)[C@H](CC(=O)O)NC(=O)[C@H](CCCCN)NC(=O)[C@H](C)NC(=O)CNC(=O)[C@@H](NC(=O)[C@H](CCCCN)NC(=O)[C@H](CC(C)C)NC(=O)[C@H](CCCCN)NC(=O)[C@H](CCC(=O)O)NC(=O)[C@H](CC(C)C)NC(=O)[C@H](Cc1ccccc1)NC(=O)CN)[C@@H](C)O)C(C)C)C(=O)N[C@@H](CCCCN)C(=O)NCC(=O)N[C@H](C(=O)O)[C@@H](C)O` [GFLEKLKTGAKDFASAFVNSIKGT], for which the MIC in [1], in test [2] and in test [3] was at least 202 µM each time.

Consider `CC[C@H](C)[C@H](NC(=O)[C@H](Cc1cnc[nH]1)NC(=O)[C@@H]1CCCN1C(=O)[C@@H](NC(=O)[C@H](CC(C)C)NC(=O)[C@H](CO)NC(=O)[C@H](CC(C)C)NC(=O)[C@@H](N)Cc1ccccc1)[C@@H](C)CC)C(=O)N[C@H](C(=O)N[C@@H](CO)C(=O)NCC(=O)N[C@H](C(=O)N[C@@H](C)C(=O)N[C@@H](C)C(=O)N[C@@H](CC(C)C)C(=O)N[C@@H](C)C(=O)N[C@@H](CC(N)=O)C(=O)N[C@@H](Cc1cnc[nH]1)C(=O)N[C@@H](CC(C)C)C(N)=O)C(C)C)C(C)C` [FLSLIPHIVSGVAALANHL], for which the MIC in [1], in [2] and in test [3] was at least 200 µM in each case.

As for `CC[C@H](C)[C@H](NC(=O)[C@H](Cc1ccccc1)NC(=O)[C@@H](NC(=O)[C@H](Cc1ccccc1)NC(=O)[C@H](CCCN=C(N)N)NC(=O)[C@H](CCCCN)NC(=O)[C@H](CCCN=C(N)N)NC(=O)[C@H](CCCCN)NC(=O)[C@H](Cc1ccccc1)NC(=O)[C@H](CC(C)C)NC(=O)[C@@H](NC(=O)[C@@H](N)Cc1ccc(O)cc1)C(C)C)[C@@H](C)CC)C(=O)O` [YVLFKRKRFIFI], the MIC against Bacillus subtilis is at least 200 µM; in test [4], at least 50 µM; in test [5], above 200 µM; in test [6], 200 µM (≈ 326 µg/mL).

Regarding `CC[C@H](C)[C@H](NC(=O)[C@H](CC(C)C)NC(=O)[C@H](CCCCN)NC(=O)[C@H](CCCCN)NC(=O)[C@@H](NC(=O)[C@H](CC(C)C)NC(=O)[C@H](CCCCN)NC(=O)[C@@H]1CCCN1C(=O)[C@@H](NC(=O)[C@H](CCSC)NC(=O)CNC(=O)[C@H](CC(C)C)NC(=O)[C@@H](N)Cc1ccccc1)[C@@H](C)CC)[C@@H](C)CC)C(=O)N[C@@H](CCCCN)C(=O)N[C@@H](C)C(=O)N[C@@H](Cc1ccccc1)C(=O)N[C@@H](CCCCN)C(=O)O` [FLGMIPKLIKKLIKAFK], the minimum inhibitory concentration (MIC) turned out to be 5 µM (≈ 9.94 µg/mL) in [1], 2.5 µM (≈ 4.97 µg/mL) in [2] and 5 µM (≈ 9.94 µg/mL) in test [3].

On to `CSCC[C@H](NC(=O)[C@H](CCCCN)NC(=O)[C@@H](NC(=O)[C@H](CCC(=O)O)NC(=O)[C@H](CCCCN)NC(=O)[C@H](CCCCN)NC(=O)[C@H](CCCCN)NC(=O)[C@H](CCCCN)NC(=O)[C@H](CC(C)C)NC(=O)[C@H](CCSC)NC(=O)[C@@H](N)CCC(=O)O)C(C)C)C(=O)N[C@@H](CCC(=O)O)C(=O)N[C@@H](CCCN=C(N)N)C(=O)N[C@@H](CCCCN)C(=O)N[C@H](C(=O)O)[C@@H](C)O` [EMLKKKKEVKMERKT], for which the MIC was at least 105 µM in [7], at least 105 µM in test [8], above 105 µM in [9] and above 105 µM in [6].

For the compound `CC[C@H](C)[C@H](NC(=O)[C@H](C)NC(=O)[C@@H](N)C(C)C)C(=O)N[C@@H](Cc1ccc(O)cc1)C(=O)NCC(=O)N[C@@H](CCCN=C(N)N)C(=O)N[C@@H](CC(=O)O)C(=O)N[C@@H](CC(=O)O)C(=O)N[C@@H](CCCN=C(N)N)C(=O)N[C@@H](CO)C(=O)N[C@@H](CC(=O)O)C(=O)N[C@H](C(=O)N[C@H]1CSSC[C@@H](C(=O)N[C@@H](CC(=O)O)C(=O)N[C@H](C(=O)N[C@@H](Cc2ccc(O)cc2)C(=O)O)[C@@H](C)O)NC(=O)[C@H](C(C)C)NC(=O)[C@H](CC(C)C)NC(=O)[C@H](Cc2c[nH]c3ccccc23)NC(=O)[C@H](CC(N)=O)NC(=O)[C@H](Cc2cnc[nH]2)NC(=O)[C@H](CCC(N)=O)NC(=O)[C@H](C(C)C)NC(=O)[C@H](CCC(N)=O)NC(=O)[C@H](CCCN=C(N)N)NC1=O)C(C)C` [VAIYGRDDRSDVCRQVQHNWLVCDTY], the MIC in test [7] was at least 64.3 µM; in test [8] it was at least 64.3 µM; in test [9], above 64.3 µM; in [6], above 64.3 µM.

Turning to `CC[C@H](C)[C@H](NC(=O)[C@H](CC(N)=O)NC(=O)[C@H](Cc1ccccc1)NC(=O)[C@H](CCSC)NC(=O)[C@H](CC(N)=O)NC(=O)[C@@H](N)CCC(=O)O)C(=O)N[C@@H](CCCCN)C(=O)N[C@@H](CO)C(=O)N[C@@H](CO)C(=O)N[C@H](C(=O)N[C@@H](CCC(=O)O)C(=O)N[C@@H](CO)C(=O)N[C@@H](CC(=O)O)C(=O)N[C@@H](CO)C(=O)N[C@@H](Cc1ccccc1)C(=O)N[C@@H](Cc1c[nH]c2ccccc12)C(=O)NCC(=O)O)C(C)C` [ENMFNIKSSVESDSFWG], the MIC in test [7] is at least 101 µM; in test [8] it was at least 101 µM; in test [9], above 101 µM; in test [6], above 101 µM.

As to `CC[C@H](C)[C@H](NC(=O)CNC(=O)[C@H](CS)NC(=O)[C@H](Cc1ccccc1)NC(=O)[C@H](CCCCN)NC(=O)[C@H](CCCN=C(N)N)NC(=O)[C@@H]1CCCN1C(=O)[C@H](CCCN=C(N)N)NC(=O)[C@H](CC(=O)O)NC(=O)[C@@H]1CCCN1C(=O)[C@H](C)N)C(=O)N[C@@H](CC(C)C)C(=O)NCC(=O)O` [APDRPRKFCGILG], the MIC is at least 140 µM in test [7], at least 140 µM in test [8], above 140 µM in test [9] and above 140 µM in [6].

Take `CC[C@H](C)[C@H](NC(=O)[C@H](Cc1ccc(O)cc1)NC(=O)[C@H](CO)NC(=O)[C@H](CS)NC(=O)[C@H](Cc1ccccc1)NC(=O)[C@H](CC(C)C)NC(=O)[C@H](CC(N)=O)NC(=O)[C@H](CCC(=O)O)NC(=O)[C@H](CCSC)NC(=O)[C@H](CC(C)C)NC(=O)[C@@H](NC(=O)[C@@H](NC(=O)[C@H](CC(=O)O)NC(=O)[C@H](CCC(=O)O)NC(=O)[C@H](CCC(=O)O)NC(=O)[C@H](C)NC(=O)[C@H](CC(N)=O)NC(=O)[C@@H](N)CCC(=O)O)[C@@H](C)CC)C(C)C)C(=O)N[C@H](C(=O)NCC(=O)N[C@@H](CO)C(=O)N[C@@H](C)C(=O)N[C@@H](CC(=O)O)C(=O)N[C@@H](CO)C(=O)N[C@@H](Cc1ccccc1)C(=O)N[C@@H](Cc1c[nH]c2ccccc12)C(=O)N[C@H](C(=O)O)[C@@H](C)O)C(C)C` [ENAEEDIVLMENLFCSYIVGSADSFWT]: the MIC in test [7] is at least 64.9 µM; in [8] it was at least 64.9 µM; in [9] it was above 64.9 µM; in test [6], above 64.9 µM.

Consider `CC[C@H](C)[C@H](NC(=O)[C@H](CC(N)=O)NC(=O)[C@@H](NC(=O)[C@H](C)N)[C@@H](C)O)C(=O)N1CCC[C@H]1C(=O)N[C@@H](Cc1ccccc1)C(=O)N[C@@H](CCCCN)C(=O)N[C@H](C(=O)N[C@@H](Cc1cnc[nH]1)C(=O)N[C@@H](Cc1ccccc1)C(=O)N[C@@H](CCCN=C(N)N)C(=O)N[C@H]1CSSC[C@@H](C(=O)O)NC(=O)[C@H](Cc2ccccc2)NC(=O)[C@H](C)NC(=O)[C@H](C)NC(=O)[C@H](CCCCN)NC1=O)C(C)C` [ATNIPFKVHFRCKAAFC], for which the MIC in test [7] is 24.1 µM (≈ 47 µg/mL); in test [8] it was 24.1 µM (≈ 47 µg/mL); in [9] it was 12 µM (≈ 23.5 µg/mL); in test [6], above 24.1 µM.
